Measurements published in patent publication US20220280661A1, “GLUCOCORTICOID RECEPTOR RADIOLIGANDS AND METHODS FOR THEIR PREPARATION AND USE” (The Regents of the University of California, priority 2019, published 2022).

Molecular target: T1, GR (Mus musculus, UniProt P06537)
T1 construct: from tissue; host or cells: tissues of C57BL6/J mice (intact or adrenalectomized), in vivo
T1 sequence (P06537 1-792): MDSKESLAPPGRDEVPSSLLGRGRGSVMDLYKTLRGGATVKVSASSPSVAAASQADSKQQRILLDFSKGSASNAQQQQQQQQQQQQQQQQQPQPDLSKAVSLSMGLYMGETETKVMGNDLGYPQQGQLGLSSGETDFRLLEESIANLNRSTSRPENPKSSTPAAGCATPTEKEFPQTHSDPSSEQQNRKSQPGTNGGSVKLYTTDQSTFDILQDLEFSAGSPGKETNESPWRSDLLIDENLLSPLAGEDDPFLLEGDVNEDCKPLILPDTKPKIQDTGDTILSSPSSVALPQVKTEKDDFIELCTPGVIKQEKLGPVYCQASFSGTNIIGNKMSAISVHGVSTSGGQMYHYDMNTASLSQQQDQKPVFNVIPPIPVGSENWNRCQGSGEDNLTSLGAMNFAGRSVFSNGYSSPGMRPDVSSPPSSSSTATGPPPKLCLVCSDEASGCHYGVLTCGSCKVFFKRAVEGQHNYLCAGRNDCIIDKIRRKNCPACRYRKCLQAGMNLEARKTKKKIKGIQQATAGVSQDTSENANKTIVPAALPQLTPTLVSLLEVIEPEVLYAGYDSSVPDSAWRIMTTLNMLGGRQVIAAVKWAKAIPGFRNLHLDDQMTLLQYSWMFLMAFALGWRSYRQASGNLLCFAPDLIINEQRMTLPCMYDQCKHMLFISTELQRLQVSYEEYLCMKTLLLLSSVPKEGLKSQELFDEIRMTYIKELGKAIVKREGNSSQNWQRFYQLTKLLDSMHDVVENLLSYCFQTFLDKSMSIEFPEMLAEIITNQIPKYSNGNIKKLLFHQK
Test: Radiotracer biodistribution in intact or adrenalectomized mice
Type: in vivo
Conditions: 20 min post injection
Protocol: All animal experiments were conducted under the approval from Institutional Animal Care and Use Committee (IACUC) at UCSF. Male nu nu or C57BL6/J mice (4-6 weeks) purchased from Charles River. All the mice were well-housed in the USCF with free access to food and water. […] The mice were treated once daily for three days. At day 3, the mice received the radiotracer after the final gavage. Adrenalectomized mice were purchased from Charles River, and provided drinking water supplemented with NaCl (aq) per instructions.
For a broader survey of radiotracer biodistribution post mortem, mice were euthanized after radiotracer injection with CO2(g) asphyxiation and dissected at dedicated time points post injection. The blood and tissues were removed, washed, dried and weighed. The activity of each tissue was measured with a gamma counter. All data was decay corrected. PRISM software was used to express a percentage (% ID/g) of the injected dose per gram of tissue. […] Table 2 provides a tabular representation of the biodistribution data collected 30, 60, 90 minutes after injection of [18F]-YJH08 in C57B16/J mice. The data are represented as mean standard deviation of the % ID/g.
To understand if corticosteroid depletion elevated radiotracer uptake in tissues, the biodistribution of [18F]-YJH08 was compared in intact and adrenalectomized (adx) mice. The radiotracer uptake was uniformly higher in the tissues of adx mice compared to intact mice (FIG. 4C and Table 4). Overall, the extent of GR specific binding in tissues observed with [18F]-YJH08 is remarkable considering the previously reported biodistribution data for radiotracers targeting GR, including non-steroidal agonists. See, Wuest, et al. Bioorganic & medicinal chemistry letters 2007, 17 (14), 4035-9.
The P value indicates the result of an unpaired, two-tailed Student's t test between the two arms (n=4/group).
Animal Studies. All animal experiments were performed under the approval of the Institutional Animal Care and Use Committee (IACUC) at UCSF. C57BL6/J mice (4-6 weeks) were purchased from Charles River. All the mice were housed in a dedicated vivarium with free access to food and water. […] Adrenalectomized mice were purchased from Charles River and provided drinking water supplemented with NaCl (aq) per instructions until the time of the tracer biodistribution study.
Biodistribution Studies. Mice were euthanized after radiotracer (7.4-18.5 MBq in 100-150 μL) injection with CO2 (g) asphyxiation and dissected at dedicated time points post injection. The blood and tissues were collected, washed, dried, and weighed. The activity of each tissue was measured with a gamma counter. All data was decay corrected. PRISM software was used to express a percentage (% ID/g) of the injected dose per gram of tissue.
The data were collected in intact male C57B16/J mice at 20 min post injection.
Significant reductions in (±)-^11C-YJH08 tissue uptake were observed by treating mice with Dex-CD at 10 mg/kg via intraperitoneal injection 1 hour before the radiotracer injection (FIG. 7A). […] Specific binding in vivo was further studied by investigating relative tissue uptake in intact versus adrenalectomized mice (adrenalectomy depletes serum corticosteroids and elevates GR expression in tissues). […] Table 8 summarizes the biodistribution data collected 20 minutes after injection of (±)-^11C-YJH08 in intact or adrenalectomized (ADREX) mice. The P value indicates the result of an unpaired, two-tailed Student's t test between the two arms (n=4/group).

[1] = intact C57B16/J mice, listed as (±)-^18F-YJH08

SMILES	radiotracer uptake, Blood (adrenalectomized mice)	radiotracer uptake, Bone (adrenalectomized mice)	radiotracer uptake, Brain (adrenalectomized mice)	radiotracer uptake, Heart (adrenalectomized mice)	radiotracer uptake, Kidney (adrenalectomized mice)	radiotracer uptake, Liver (adrenalectomized mice)	radiotracer uptake, Muscle (adrenalectomized mice)	radiotracer uptake, Spleen (adrenalectomized mice)	radiotracer uptake, Supraspinal BAT (adrenalectomized mice)	radiotracer uptake, Adrenal Gland (intact C57B16/J mice)	radiotracer uptake, Blood (intact C57B16/J mice)	radiotracer uptake, Bone (intact C57B16/J mice)	radiotracer uptake, Brain (intact C57B16/J mice)	radiotracer uptake, Heart (intact C57B16/J mice)	radiotracer uptake, Kidney (intact C57B16/J mice)	radiotracer uptake, Liver (intact C57B16/J mice)	radiotracer uptake, Muscle (intact C57B16/J mice)	radiotracer uptake, Spleen (intact C57B16/J mice)	radiotracer uptake, Supraspinal BAT (brown fat depot) (intact C57B16/J mice)	also measured
COc1cccc2c1-c1ccc3c(c1C(Cc1ccc([18F])cc1)O2)C(C)=CC(C)(C)N3 (racemic) [[18F]-YJH08, [^18F]-5-(4-fluorobenzyl)-10-methoxy-2,2,4-trimethyl-2,5-dihydro-1H-chromeno[3,4-f]quinoline]	2.67 ± 0.1 % ID/g	1.45 ± 0.2 % ID/g	2.42 ± 0.1 % ID/g	4.75 ± 1.0 % ID/g	6.91 ± 0.3 % ID/g	13.28 ± 1.43 % ID/g	2.03 ± 0.2 % ID/g	3.25 ± 0.05 % ID/g	15.56 ± 3.8 % ID/g	10.82 ± 5.9 % ID/g	2.01 ± 0.4 % ID/g	1.39 ± 02 % ID/g	1.96 ± 0.09 % ID/g	3.92 ± 0.5 % ID/g	5.79 ± 1.0 % ID/g	10.68 ± 1.1 % ID/g	1.53 ± 0.1 % ID/g	2.67 ± −0.5 % ID/g	9.01 ± 2.0 % ID/g	radiotracer uptake, Large intestine (adrenalectomized mice): 1.34 ± 0.7 % ID/g; radiotracer uptake, Lung (adrenalectomized mice): 4.35 ± 1.1 % ID/g; radiotracer uptake, Pancreas (adrenalectomized mice): 5.25 ± 0.4 % ID/g; radiotracer uptake, Small intestine (adrenalectomized mice): 27.83 ± 2.89 % ID/g; radiotracer uptake, Stomach (adrenalectomized mice): 3.23 ± 3.57 % ID/g; radiotracer uptake, Lung (intact C57B16/J mice): 3.89 ± 0.7 % ID/g; radiotracer uptake, Pancreas (intact C57B16/J mice): 4.40 ± 0.2 % ID/g; radiotracer uptake, Small intestine (intact C57B16/J mice): 21.22 ± 4.1 % ID/g; radiotracer uptake, Stomach (intact C57B16/J mice): 3.38 ± 2.8 % ID/g; radiotracer uptake, Adrenal Gland [1]: 12.19 ± 6.46 % ID/g; radiotracer uptake, Blood [1]: 2.22 ± 0.14 % ID/g; radiotracer uptake, Bone [1]: 1.3 ± 0.23 % ID/g; radiotracer uptake, Brain [1]: 1.93 ± 0.07 % ID/g; radiotracer uptake, Heart [1]: 4.15 ± 0.31 % ID/g; radiotracer uptake, Kidney [1]: 5.79 ± 1.07 % ID/g; radiotracer uptake, Liver [1]: 11.08 ± 0.92 % ID/g; radiotracer uptake, Muscle [1]: 1.53 ± 0.12 % ID/g; radiotracer uptake, Spleen [1]: 2.46 ± 0.53 % ID/g; radiotracer uptake, Supraspinal BAT (brown fat depot) [1]: 9.01 ± 2.07 % ID/g
CC1=CC(C)(C)Nc2ccc3c(c21)C(Cc1ccc(F)cc1)Oc1cccc(O[11CH3])c1-3 (racemic) [(±)-^11C-YJH08]	2.79 ± 0.54 % ID/g	2.03 ± 0.4 % ID/g	2.28 ± 0.46 % ID/g	5.63 ± 0.94 % ID/g	6.88 ± 1.52 % ID/g	15.21 ± 3.39 % ID/g	2.32 ± 0.5 % ID/g	2.88 ± 0.68 % ID/g	12.01 ± 3.54 % ID/g	13.88 ± 7.15 % ID/g	2.25 ± 0.21 % ID/g	1.19 ± 0.13 % ID/g	1.81 ± 0.17 % ID/g	4.47 ± 0.43 % ID/g	5.82 ± 0.28 % ID/g	12.19 ± 1.22 % ID/g	1.53 ± 0.13 % ID/g	2.22 ± 0.33 % ID/g	9.8 ± 2.83 % ID/g	
